# Laboratory results published in patent publication US20110275583A1, “Synergistic active compound combinations” (priority 2010, published 2011).
# Read-outs that look alike come from different tables or passages of the source.
# Tests used:
# Format in all cases: in vivo
# [1] = system: larvae of the mustard beetle (Phaedon cochleariae); assay: Phaedon cochleariae larvae test (sprayed cabbage leaves); settings: Phaedon cochleariae, single active compound
# Description: (§1) The expected action for a given combination of two active compounds can be calculated as follows, using the formula of S. R. Colby, Weeds 15 (1967), 20-22: • If • X is the kill rate, expressed as % of the untreated control, when employing active compound A at an application rate of m g/ha or in a concentration of in ppm, • Y is the kill rate, expressed as % of the untreated control, when employing active compound B at an application rate of n g/ha or in a concentration of n ppm and • E is the kill rate, expressed as % of the untreated control, when employing active compounds A and B at application rates of m and n g/ha or in a concentration of m and n ppm, • then
# (§2) If the actual kill rate exceeds the calculated value, the action of the combination is superadditive, i.e. a synergistic effect is present. In this case, the actually observed kill rate must exceed the value calculated using the above formula for the expected kill rate (E).
# (§3) Solvent: 78 parts by weight of acetone • • 1.5 parts by weight of dimethylformamide
# (§4) Emulsifier: 0.5 part by weight of alkylaryl polyglycol ether
# (§5) To produce a suitable preparation of active compound, 1 part by weight of active compound is mixed with the stated amounts of solvent and emulsifier, and the concentrate is diluted with emulsifier-containing water to the desired concentration.
# Cabbage leaves (Brassica oleracea) are treated by spraying with the active compound preparation of the desired concentration and populated with larvae of the mustard beetle (Phaedon cochleariae) while the leaves are still moist.
# After the desired period of time, the kill in % is determined. 100% means that all beetle larvae have been killed; 0% means that none of the beetle larvae have been killed. The kill rates determined are entered into Colby's formula.
# [2] = system: armyworm (Spodoptera frugiperda); assay: Spodoptera frugiperda larvae test (sprayed cabbage leaves); settings: single active compound
# Description: as §1, §2, §3, §4, §5
# Cabbage leaves (Brassica oleracea) are treated by being sprayed with the preparation of active compound of the desired concentration and are populated with the armyworm (Spodoptera frugiperda) while the leaves are still moist.
# After the desired period of time, the kill in % is determined. 100% means that all caterpillars have been killed; 0% means that none of the caterpillars have been killed. The kill rates determined are entered, into Colby's formula.
# [3] = system: green peach aphid (Myzus persicae); assay: Myzus persicae test (spray treatment of infested cabbage leaves); settings: Myzus persicae, 24 h, after 1 d, read-out: Kill in % after 1d
# Description: as §1, §2, §3, §4, §5
# Cabbage leaves (Brassica oleracea) which are heavily infested by the green peach aphid (Myzus persicae) are treated by spraying with the active compound preparation of the desired concentration.
# After the desired period of time, the kill in % is determined. 100% means that all of the aphids have been killed; 0% means that none of the aphids have been killed. The kill rates determined are entered into Colby's formula.
# [4] = system: greenhouse red spider mite (Tetranychus urticae); assay: Tetranychus test, OP-resistant/spray treatment (bean leaf discs); settings: single active compound
# Description: as §1, §2, §3, §4, §5
# Discs of bean leaves (Phaseolus vulgaris) which are infested by all stages of the greenhouse red spider mite (Tetranychus urticae) are sprayed with an active compound preparation of the desired concentration.
# After the desired period of time, the effect in % is determined. 100% means that all of the spider mites have been killed; 0% means that none of the spider mites have been killed.
# [5] = 48 h, 2 d, read-out: Kill in % after 2 d
# [6] = Spodoptera frugiperda, 144 h, 6 d, read-out: Kill in % after 6 d
# [7] = Tetranychus urticae, foliar, 48 h, 2 d, read-out: Kill in % after 2 d
# [8] = 144 h, 6 d, read-out: Kill in % after 6 d
# [9] = Tetranychus urticae, foliar, 144 h, 6 d, read-out: Kill in % after 6 d
# [10] = Tetranychus urticae, foliar, 48 h, 100 g/ha, 2 d, read-out: Kill in % after 2 d
# [11] = Spodoptera frugiperda, 48 h, 2 d, read-out: Kill in % after 2 d
compound,measurement,setting,value
"CNC(=O)c1cc(C#N)cc(C)c1NC(=O)c1cc(Br)nn1-c1ncccc1Cl [Cyazypyr, cyantraniliprole]",pest or weed control at 0.8 g/ha,[1]; [5],50%
same,pest or weed control at 0.16 g/ha,"[1]; 144 h, 0.16 g/ha, 6 d, read-out: Kill in % after 6 d",33%
same,pest or weed control at 0.8 g/ha,[2]; [6],50%
same,pest or weed control at 0.8 g/ha,[3],0%
same,pest or weed control at 20 g/ha,[4]; [7],0%
"CC1(C)C(/C=C(\Cl)C(F)(F)F)C1C(=O)OC(C#N)c1cccc(Oc2ccccc2)c1 [L-cyhalothrin, lambda-cyhalothrin]",pest or weed control at 0.8 g/ha,[1]; [8],33%
same,pest or weed control at 0.16 g/ha,"[2]; Spodoptera frugiperda, 144 h, 0.16 g/ha, 6 d, read-out: Kill in % after 6 d",0%
same,pest or weed control at 0.8 g/ha,[2]; [6],50%
same,pest or weed control at 0.032 g/ha,[3]; 0.032 g/ha,0%
same,pest or weed control at 0.8 g/ha,"[4]; Tetranychus urticae, foliar, 144 h, 0.8 g/ha, 6 d, read-out: Kill in % after 6 d",0%
same,pest or weed control at 4 g/ha,[4]; [9],80%
CNC(=O)O/N=C/C(C)(C)SC [aldicarb],pest or weed control at 100 g/ha,[2]; [6],0%
same,pest or weed control at 100 g/ha,[4]; [10],0%
CC1(C)C(C=C(Cl)Cl)C1C(=O)OC(C#N)c1cccc(Oc2ccccc2)c1 (stereo not drawn) [alpha-cypermethrin],pest or weed control at 4 g/ha,[1]; [8],67%
same,pest or weed control at 0.8 g/ha,[2]; [6],33%
same,pest or weed control at 0.16 g/ha,[3]; 0.16 g/ha,0%
"CNC(=O)c1cc(Cl)cc(C)c1NC(=O)c1cc(Br)nn1-c1ncccc1Cl [chloranthraniliprole, chlorantraniliprole]",pest or weed control at 0.8 g/ha,[1]; [5],67%
same,pest or weed control at 4 g/ha,"[2]; Spodoptera frugiperda, 48 h, 4 g/ha, 2 d, read-out: Kill in % after 2 d",67%
same,pest or weed control at 0.8 g/ha,[3],0%
CCOP(=S)(OCC)Oc1nc(Cl)c(Cl)cc1Cl [chlorpyrifos],Kill in % after 6 d,"[2]; 4 g/ha, 6 d",0%
same,Kill in % after 6 d,"[4]; 100 g/ha, 6 d",0%
c1cnc(-c2cccc(-c3cnc(-c4cccnc4)s3)n2)nc1 [compound of the formula (I-2)],pest or weed control at 4 g/ha,[1]; [5],0%
same,pest or weed control at 20 g/ha,[1]; [5],0%
same,pest or weed control at 100 g/ha,[1]; [5],0%
same,pest or weed control at 500 g/ha,[1]; [5],0%
same,pest or weed control at 4 g/ha,[1]; [8],0%
same,pest or weed control at 20 g/ha,[1]; [8],0%
same,pest or weed control at 100 g/ha,[1]; [8],0%
same,pest or weed control at 500 g/ha,[1]; [8],0%
same,pest or weed control at 20 g/ha,[2]; [11],0%
same,pest or weed control at 100 g/ha,[2]; [11],0%
same,pest or weed control at 500 g/ha,[2]; [11],0%
same,pest or weed control at 20 g/ha,[2]; [6],0%
same,pest or weed control at 100 g/ha,[2]; [6],0%
same,pest or weed control at 500 g/ha,[2]; [6],0%
same,pest or weed control at 4 g/ha,[3]; 4 g/ha,0%
same,pest or weed control at 20 g/ha,[3]; 20 g/ha,0%
same,pest or weed control at 100 g/ha,[3]; 100 g/ha,0%
same,pest or weed control at 500 g/ha,[3]; 500 g/ha,0%
same,pest or weed control at 4 g/ha,[4]; [7],0%
same,pest or weed control at 20 g/ha,[4]; [7],0%
same,pest or weed control at 100 g/ha,[4]; [10],0%
same,pest or weed control at 500 g/ha,[4]; [7],0%
same,pest or weed control at 4 g/ha,[4]; [9],0%
same,pest or weed control at 500 g/ha,[4]; [9],0%
